Assay results from patent US10508120B2, “TYK2 inhibitors and uses thereof” (Nimbus Lakshmi, Inc., priority 2017, dated 2019).

biological target: human TYK2 (JH2domain-pseudokinase) (Homo sapiens (Human), UniProt P29597); test: TYK2 JH2 Domain Binding Assay (KINOMEscan)
Procedure: Binding constants for compounds of the present invention against the JH2 domain were determined by the following protocol for a KINOMEscan® assay (DiscoveRx). A fusion protein of a partial length construct of human TYK2 (JH2domain-pseudokinase) (amino acids G556 to D888 based on reference sequence NP_003322.3) and the DNA binding domain of NFkB was expressed in transiently transfected HEK293 cells. From these HEK 293 cells, extracts were prepared in M-PER extraction buffer (Pierce) in the presence of Protease Inhibitor Cocktail Complete (Roche) and Phosphatase Inhibitor Cocktail Set II (Merck) per manufacturers' instructions. The TYK2 (JH2domain-pseudokinase) fusion protein was labeled with a chimeric double-stranded DNA tag containing the NFkB binding site (5′-[…]-3′) fused to an amplicon for qPCR readout, which was added directly to the expression extract (the final concentration of DNA-tag in the binding reaction is 0.1 nM).
The liganded beads were blocked with excess biotin and washed with blocking buffer (SeaBlock (Pierce), 1% BSA, 0.05% Tween 20, 1 mM DTT) to remove unbound ligand and to reduce nonspecific binding.
Extracts were used directly in binding assays without any enzyme purification steps at a ≥10,000-fold overall stock dilution (final DNA-tagged enzyme concentration <0.1 nM). Extracts were loaded with DNA-tag and diluted into the binding reaction in a two step process. First extracts were diluted 1:100 in 1× binding buffer (PBS/0.05% Tween 20/10 mM DTT/0.1% BSA/2 μg/ml sonicated salmon sperm DNA) containing 10 nM DNA-tag. This dilution was allowed to equilibrate at room temperature for 15 minutes and then subsequently diluted 1:100 in 1× binding buffer. […] Kds were determined using an 11-point 3-fold compound dilution series with three DMSO control points. […] The compounds were then diluted directly into the assays such that the final concentration of DMSO was 0.9%. All reactions performed in polypropylene 384-well plates. Each was a final volume of 0.02 mL. Assays were incubated with shaking for 1 hour at room temperature. Then the beads were pelleted and washed with wash buffer (1×PBS, 0.05% Tween 20) to remove displaced kinase and test compound. […] The qPCR protocol consisted of a 10 minute hot start at 95° C., followed by 35 cycles of 95° C. for 15 seconds, 60° C. for 1 minute.
Kds were determined using an 11-point 3-fold compound dilution series with three DMSO control points. […] The compounds were then diluted directly into the assays such that the final concentration of DMSO was 0.9%. The Kds were determined using a compound top concentration of 30,000 nM. Kd measurements were performed in duplicate.
Binding constants (Kds) were calculated with a standard dose-response curve using the Hill equation: […]
The Hill Slope was set to −1.

human TYK2 (JH2domain-pseudokinase), sequence (P29597 556-888): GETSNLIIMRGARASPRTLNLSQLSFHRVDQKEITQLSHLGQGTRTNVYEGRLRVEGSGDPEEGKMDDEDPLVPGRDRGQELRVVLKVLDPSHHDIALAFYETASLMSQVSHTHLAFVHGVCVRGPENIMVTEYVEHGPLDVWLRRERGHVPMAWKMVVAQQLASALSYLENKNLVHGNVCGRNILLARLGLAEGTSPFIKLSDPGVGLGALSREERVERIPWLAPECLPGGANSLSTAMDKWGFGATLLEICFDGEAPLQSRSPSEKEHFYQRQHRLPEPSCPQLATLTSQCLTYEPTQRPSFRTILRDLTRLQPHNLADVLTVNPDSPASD

Row | Structure (SMILES) | Kd [nM]
1 | CCO[C@@H]1CC[C@H]1NC(=O)c1cnn2c(NC)cc(Nc3cccn(-c4ccccn4)c3=O)nc12 [I-1294] | < 0.2
2 | CNc1cc(Nc2cccn(C3CC(F)(F)C3)c2=O)nc2c(C(=O)N[C@@H]3CC[C@H](O)C3)cnn12 [I-1212] | > 10
3 | CNc1cc(Nc2cccn(C3CC(F)(F)C3)c2=O)nc2c(C(=O)N[C@@H]3CC[C@@H](O)C3)cnn12 [I-1211] | < 0.2
4 | CNc1cc(Nc2cccn(C3CC(F)(F)C3)c2=O)nc2c(C(=O)N[C@H]3CC[C@@H]3O)cnn12 [I-1199] | 0.2 to 1
5 | CNc1cc(Nc2cccn(C3CCOCC3)c2=O)nc2c(C(=O)N[C@@H]3CC[C@@H](OC)C3)cnn12 [I-1195] | 1 to 10
6 | CNc1cc(Nc2cccn(C(C)C)c2=O)nc2c(C(=O)N[C@H]3COC[C@H]3O)cnn12 [I-1406] | > 10
7 | CNc1cc(Nc2cccn([C@H]3CC[C@H]3O)c2=O)nc2c(C(=O)N[C@H]3CC[C@@H]3OC)cnn12 [I-1345] | < 0.2
8 | CNc1cc(Nc2cccn([C@H]3CCCOC3)c2=O)nc2c(C(=O)N[C@H]3C[C@@H]3OC)cnn12 [I-1249] | < 0.2
9 | CNc1cc(-c2cn([C@@H]3CCCOC3)c3ncccc23)nc2c(C(=O)NC3CCC3O)cnn12 (mixture of isomers) [I-1257, N-(2-hydroxycyclobutyl)-7-(methylamino)-5-(1-((R)-tetrahydro-2H-pyran-3-yl)-1H-pyrrolo[2,3-b]pyridin-3-yl)pyrazolo[1,5-a]pyrimidine-3-carboxamide] | < 0.2
10 | CNc1cc(Nc2cccn([C@@H]3C[C@H]3F)c2=O)nc2c(C(=O)NCC(C)(C)CO)cnn12 [I-1399] | 1 to 10
11 | CNc1cc(Nc2cccn([C@@H]3CCC[C@@H]3O)c2=O)nc2c(C(=O)N[C@H]3CC[C@@H]3OC)cnn12 [I-1394] | < 0.2
12 | CNc1cc(Nc2cccn([C@H]3C[C@@H]3OC)c2=O)nc2c(C(=O)N[C@@H]3CC[C@H]3OC)cnn12 [I-1186] | < 0.2
13 | CNc1cc(Nc2cccn(-c3cccc(F)c3)c2=O)nc2c(C(=O)N[C@@H]3COC[C@@H]3O)cnn12 [I-1303] | 1 to 10
14 | CNc1cc(Nc2cccn([C@@H]3C[C@H]3F)c2=O)nc2c(C(=O)N[C@@H]3CC[C@H]3O)cnn12 [I-1402] | 1 to 10
15 | CNc1cc(Nc2cccn([C@H]3C[C@@H]3OC)c2=O)nc2c(C(=O)N[C@@H]3C[C@@H]3F)cnn12 [I-1272] | 1 to 10
16 | CNc1cc(Nc2cccn([C@H]3CCCOC3)c2=O)nc2c(C(=O)N[C@@H]3CCC[C@@](C)(OC)C3)cnn12 [I-1237] | > 10
17 | CNc1cc(Nc2cccn([C@H]3CCC[C@H](OC)C3)c2=O)nc2c(C(=O)N[C@H]3CC[C@@H]3OC)cnn12 [I-1375] | 1 to 10
18 | CNc1cc(Nc2cccn3ccnc23)nc2c(C(=O)N[C@H]3CCC[C@]3(C)O)cnn12 [I-1316] | 1 to 10
19 | CNc1cc(Nc2cccn([C@@H]3C[C@H]3F)c2=O)nc2c(C(=O)N[C@@H]3CC[C@@H]3O)cnn12 [I-1403] | 0.2 to 1

Row | Structure (SMILES) | Kd [nM]
20 | NC(=O)c1cnn2c(N)cc(Nc3cc(Cl)cnc3O[C@@H]3CCOC3)nc12 [I-85] | 1 to 10
21 | CNC(=O)c1occc1Nc1cc(NC)n2ncc(C(=O)N[C@@H]3CC[C@H]3OC)c2n1 [I-1322] | < 0.2
22 | CNc1cc(Nc2cccn([C@H]3CCC[C@@H](C#N)C3)c2=O)nc2c(C(=O)N[C@@H]3C[C@@H]3F)cnn12 [I-1360] | < 0.2
23 | CNc1cc(Nc2cccn(-c3cccnc3)c2=O)nc2c(C(=O)N[C@@H]3CCC[C@@H](OC)C3)cnn12 [I-1218] | 1 to 10
24 | CNc1cc(Nc2cccn([C@@H]3CCCOC3)c2=O)nc2c(C(=O)N[C@@H]3C[C@H]3OC)cnn12 [I-1269] | 0.2 to 1
25 | CNc1cc(Nc2cccn([C@H]3CCCN(CCC#N)C3)c2=O)nc2c(C(=O)NC3CC3)cnn12 [I-1347, (S)-5-((1-(1-(2-cyanoethyl)piperidin-3-yl)-2-oxo-1,2-dihydropyridin-3-yl)amino)-N-cyclopropyl-7-(methylamino)pyrazolo[1,5-a]pyrimidine-3-carboxamide] | 1 to 10
26 | CNc1cc(Nc2cccn([C@H]3C[C@@H]3OC)c2=O)nc2c(C(=O)N[C@H]3CC[C@@H]3OC)cnn12 [I-1234] | 0.2 to 1
27 | CNc1cc(Nc2cccn([C@H]3C[C@@H]3F)c2=O)nc2c(C(=O)N[C@H]3CC[C@@H]3OC)cnn12 [I-1204] | < 0.2
28 | CNc1cc(Nc2cccn([C@H]3CC[C@H]3O)c2=O)nc2c(C(=O)N[C@@H]3CC[C@H]3OC)cnn12 [I-1344] | 0.2 to 1
29 | CNc1cc(-c2cn([C@@H]3CCCOC3)c3ncccc23)nc2c(C(N)=O)cnn12 [I-1255] | 0.2 to 1
30 | CNc1cc(Nc2cc(C(F)(F)F)cn(-c3cnn(C)c3)c2=O)nc2c(C(=O)NC3CC3)cnn12 [I-523] | 0.2 to 1
31 | CNc1cc(-c2cn(C3CC3)c3ncccc23)nc2c(C(=O)N[C@H]3CCC[C@]3(C)O)cnn12 [I-1335] | < 0.2
32 | CNc1cc(Nc2cccn([C@@H]3CCC[C@@H](OC)C3)c2=O)nc2c(C(=O)N[C@@H]3CC[C@H]3OC)cnn12 [I-1330] | < 0.2
33 | CNc1cc(Nc2cccn([C@@H]3C[C@H]3F)c2=O)nc2c(C(=O)N[C@H]3CC[C@@H]3O)cnn12 [I-1401] | < 0.2
34 | CNc1cc(Nc2cccn(C3CC(F)(F)C3)c2=O)nc2c(C(=O)N[C@@H]3CC[C@H]3O)cnn12 [I-1198] | < 0.2
35 | CNc1cc(Nc2cccn(-c3nn(C)cc3F)c2=O)nc2c(C(=O)NC3CC3)cnn12 [I-1275] | < 0.2
36 | CNc1cc(Nc2cccn(-c3nc(C)co3)c2=O)nc2c(C(=O)NC(C)(C)C#N)cnn12 [I-1260] | 0.2 to 1
37 | CNc1cc(Nc2cccn([C@@H]3CCC[C@H](C#N)C3)c2=O)nc2c(C(=O)N[C@@H]3C[C@@H]3F)cnn12 [I-1219] | < 0.2
38 | CNc1cc(Nc2cccn(C3CCOCC3)c2=O)nc2c(C(=O)N[C@H]3CC[C@H](OC)C3)cnn12 [I-1194] | < 0.2

Row | Structure (SMILES) | Kd [nM]
39 | CNc1cc(Nc2cccn3cnnc23)nc2c(C(=O)N[C@@H]3CC[C@H]3OC)cnn12 [I-1342] | < 0.2
40 | CNc1cc(Nc2cccn([C@H]3CC[C@H]3O)c2=O)nc2c(C(=O)N[C@@H]3C[C@@H]3F)cnn12 [I-1284] | 0.2 to 1
41 | CNc1cc(-c2cn([C@H]3CCCOC3)c3ncccc23)nc2c(C(N)=O)cnn12 [I-1256] | < 0.2
42 | CNc1cc(Nc2cccn([C@H]3C[C@@H]3F)c2=O)nc2c(C(=O)N[C@@H]3CC[C@H]3O)cnn12 [I-1279] | < 0.2
43 | CNc1cc(Nc2cccnc2OC)nc2c(C(=O)N[C@@H]3COC[C@@H]3O)cnn12 [I-519] | < 0.2
44 | CNc1cc(-c2cn(C3CCOCC3)c3ncccc23)nc2c(C(=O)N[C@@H]3COC[C@@H]3O)cnn12 [I-1307] | < 0.2
45 | CNc1cc(Nc2cccn([C@H]3CC[C@@H](OC)CC3)c2=O)nc2c(C(=O)N[C@H]3CC[C@H]3O)cnn12 [I-1292] | < 0.2
46 | CNc1cc(Nc2cccn([C@H]3CCCC[C@H]3OC)c2=O)nc2c(C(=O)N[C@@H]3CC[C@H]3OC)cnn12 [I-1376] | > 10
47 | CNc1cc(-c2cn(C3CC3)c3ncccc23)nc2c(C(=O)N[C@H]3COC[C@H]3O)cnn12 [I-1356] | < 0.2
48 | CNc1cc(-c2cn(C3CCOCC3)c3ncccc23)nc2c(C(=O)N[C@H]3CCC[C@]3(C)O)cnn12 [I-1336] | 1 to 10
49 | CNc1cc(Nc2cccn(-c3ccccn3)c2=O)nc2c(C(=O)N[C@H]3C[C@@H]3OC)cnn12 [I-1412] | 0.2 to 1
50 | CNc1cc(-c2cn(C3CCOCC3)c3ncccc23)nc2c(C(=O)N[C@H]3CCCC[C@]3(C)O)cnn12 [I-1273] | > 10
51 | CNc1cc(Nc2cccn([C@@H]3CCN(CCF)C3)c2=O)nc2c(C(=O)N[C@H]3CC[C@@H]3OC)cnn12 [I-1332] | 1 to 10
52 | CNc1cc(Nc2cccn([C@H]3CCCN(CCF)C3)c2=O)nc2c(C(=O)N[C@@H]3CC[C@H]3OC)cnn12 [I-1216] | 0.2 to 1
53 | CNc1cc(Nc2cccn(-c3cccnc3)c2=O)nc2c(C(=O)N[C@@H]3CCC[C@@H](OC)C3)cnn12 [I-1288] | < 0.2
54 | CNc1cc(Nc2cc(Cl)cnc2OC(C)C)nc2c(C(=O)NC3COC3)cnn12 [I-87] | > 10
55 | CNc1cc(Nc2cccc(N3CCCC3=O)n2)nc2c(C(=O)NC3COC3)cnn12 [I-88] | > 10
56 | CNc1cc(Nc2cccn(C(C)C)c2=O)nc2c(C(=O)N[C@H]3CCCC[C@]3(C)O)cnn12 [I-1277] | < 0.2
57 | CNc1cc(Nc2cccn(C3CCOCC3)c2=O)nc2c(C(=O)N[C@@H]3CCCC[C@@]3(C)O)cnn12 [I-1196] | 0.2 to 1
